Results: US9150579B2, “Selective PI3K delta inhibitors” (Rhizen Pharmaceuticals SA, priority 2012, dated 2015)

Experiments:
[1] = Metabolic stability in rat liver microsomes; format: in vitro ADME; settings: 1 μM test item, 60 minutes, NADPH
Experimental: (§1) Metabolic stability studies were conducted using mouse, rat, and human liver microsomes. The protocol for the studies with mouse, rat, and human liver microsomes (all from BD Gentest, USA) is provided below. In brief, 0.4 mg protein was preincubated with 2 mM NADPH (cofactor) in phosphate buffer (pH˜7.4) for 15 min at 37° C. and then added with 1 μM test item and incubated further for 60 minutes in triplicate. The reaction mixture was terminated with methanol containing an internal standard and centrifuged further to analyze the test item remaining in the supernatant by LC-MS/MS. The percent parent compound remaining was calculated in comparison with similar samples terminated at 0 minutes.

PI3K β = PI3K β (Homo sapiens (Human), UniProt P42338); test: Assay 1: Fluorescent (HTRF) determination of PI3K enzyme activity, beta; format: biochemical
Experimental: (§2) The homogenous time resolved fluorescence (HTRF) assay allows detection of 3,4,5-triphosphate (PIP3) formed as a result of phosphorylation of phosphotidylinositol 4,5-biphosphate (PIP2) by PI3K isoforms such as α, β, γ or δ.
(§3) PI3K isoform activity for α, β, γ or δ was determined using a PI3K human HTRF™ Assay Kit (Millipore, Billerica, Mass.) with modifications. All incubations were carried out at room temperature. […] After the initial incubation, 5 μl/well of 400 μM ATP was added and incubated for an additional 30 minutes. Reaction was terminated by adding 5 μl/well stop solution (Millipore, Billerica, Mass.). Five microliters of detection mix (Millipore, Billerica, Mass.) were then added to each well and was incubated for 6-18 h in the dark.

[2] = Metabolic stability in mouse liver microsomes; format: in vitro ADME; settings: 1 μM test item, 60 minutes, NADPH
Experimental: as §1

PI3K α = PI3K α (Homo sapiens (Human), UniProt P42336); test: Assay 1: Fluorescent (HTRF) determination of PI3K enzyme activity, alpha; format: biochemical
Experimental: as §2, §3

PI3Kγ = PI3Kγ (Mus musculus (Mouse), UniProt Q9JHG7); settings: Cell-based; versus PI3Kδ
Experimental: (§4) Compound specificity towards PI3Kδ was determined in an IgM-induced B cell proliferation assay. B-cells isolated from blood of healthy subjects were seeded in a 96-well tissue culture plate and incubated with desired concentrations of compound for 30 min. Cells were stimulated with 5 μg/ml purified goat anti-human IgM. Growth was assessed using the 3-[4,5-dimethylthiazol-2-yl]-2,5-diphenyltetrazolium bromide (MTT) dye reduction test. For selectivity against PI3K α, β, or γ isoforms, NIH-3T3 or RAW macrophages were seeded in a 6-well tissue culture plate and incubated overnight. Complete medium was replaced with serum-free media the following day and compound at the desired concentrations were added. After 15 minutes, 20 ng/ml PDGF, 5 μM LPA, or 50 ng/ml c5a was added and incubated for an additional 10 minutes. Cells were lysed and AKT phosphorylation was determined by Western Blotting. Intensity of the bands was determined using ImageJ 1.42q (NIH, USA) and normalized to Actin (loading control).

PI3Kα = PI3Kα (Mus musculus (Mouse), UniProt P42337); settings: Cell-based; versus PI3Kδ
Experimental: as §4

PI3Kβ = PI3Kβ (Mus musculus (Mouse), UniProt Q8BTI9); settings: Cell-based; versus PI3Kδ
Experimental: as §4

[3] = test system: pAKT in AML patient bone marrow leukemic cells; test: Assay 6-II: pAKT analysis of AML patient bone marrow sample (pAKT ELISA); format: cell-based, human
Experimental: 6-II: pAKT analysis of AML patient bone marrow sample using pAKT ELISA kit: Mononuclear cells were extracted by the Ficoll method and seeded in plates. The cells were treated by different compounds for 48 hrs before they were analyzed by pAKT ELISA kit following the product protocol. Briefly, 1×10^6 cells were transferred into an ELISA kit well and lyzed with 10 μL 5× Cell Lysis Mix (phospho-AKT 1/2/3 (Ser473) InstantOne™ ELISA Kit, eBioscience, 85-86042). The cells were then incubated with 50 μl antibody cocktail for 1 hr at room temp. on a microplate shaker (˜300 rpm). After incubating with detection reagent, the result was measured using a SpectraMAX Plus microplate spectrophotometer set at 450 nm.

PI3K γ = PI3K γ (Homo sapiens (Human), UniProt P48736); test: Assay 1: Fluorescent (HTRF) determination of PI3K enzyme activity, gamma; format: biochemical
Experimental: as §2, §3

PI3Kδ = PI3Kδ (Homo sapiens (Human), UniProt O00329); test: Assay 4a: IgM-induced B cell proliferation assay (PI3Kδ); settings: Cell-based
Experimental: as §4

[4] = Metabolic stability in human liver microsomes; format: in vitro ADME
Experimental: as §1

PI3K delta = PI3K delta (Homo sapiens (Human), UniProt O00329); test: Assay 1: Fluorescent (HTRF) determination of PI3K enzyme activity, delta; format: biochemical
Experimental: as §2
as §3, with “dark. HRTF ratio was measured on a microplate reader (BMG Labtech., Germany) at an excitation wavelength of 337 nm and emission wavelengths of 665 and 620 nm with an integration time of 400 μsec.” for “dark.”

[5] = test system: PI3Kδ signalling in basophils; test: Assay 4: Inhibition of PI3Kδ signalling in basophils from human whole blood (anti-FcεR1 induced CD63 expression); settings: read-out: EC50, inhibition of anti-FcεR1 mediated CD63 expression
Experimental: PI3Kδ signalling in basophils manifested by an alteration of anti-FcεR1 induced CD63 expression is a useful pharmacodynamic marker determined using the Flow2CAST® kit (Buhlmann Laboratories, Switzerland). Briefly, it involves the following steps: • Mix the anti-coagulated blood sample by inverting the venipuncture tube several times • Prepare fresh and pyrogen-free 3.5 ml polypropylene or polystyrene tubes suitable for Flow Cytometry measurements • Add 49 μl of patient's whole blood to each tube. • Add 1 μl of 10% DMSO (background) or compound (10% DMSO) to the assigned tubes and mix gently. Incubate at room temperature for 15 min • Pipette 50 μl of the Stimulation buffer (background) or anti-FcεRI Ab to each tube • Add 100 μl of Stimulation Buffer to each tube • Mix gently. […] (using an incubator will take about 10 minutes longer incubation time due to less efficient heat transfer) • Add 2 ml pre-warmed (18-28° C.) Lysing Reagent to each tube, mix gently • Incubate for 5-10 minutes at 18-28° C. • Centrifuge the tubes for 5 minutes at 500×g • Decant the supernatant by using blotting paper • Resuspend the cell pellet with 300-800 μl of Wash Buffer • Vortex gently and acquire the data on the flow cytometer within the same day. • Percent CD63 positive cells within the gated basophil population are to be determined in different treatment groups and normalized to vehicle control.

Sequence of PI3K γ (P48736 whole entry): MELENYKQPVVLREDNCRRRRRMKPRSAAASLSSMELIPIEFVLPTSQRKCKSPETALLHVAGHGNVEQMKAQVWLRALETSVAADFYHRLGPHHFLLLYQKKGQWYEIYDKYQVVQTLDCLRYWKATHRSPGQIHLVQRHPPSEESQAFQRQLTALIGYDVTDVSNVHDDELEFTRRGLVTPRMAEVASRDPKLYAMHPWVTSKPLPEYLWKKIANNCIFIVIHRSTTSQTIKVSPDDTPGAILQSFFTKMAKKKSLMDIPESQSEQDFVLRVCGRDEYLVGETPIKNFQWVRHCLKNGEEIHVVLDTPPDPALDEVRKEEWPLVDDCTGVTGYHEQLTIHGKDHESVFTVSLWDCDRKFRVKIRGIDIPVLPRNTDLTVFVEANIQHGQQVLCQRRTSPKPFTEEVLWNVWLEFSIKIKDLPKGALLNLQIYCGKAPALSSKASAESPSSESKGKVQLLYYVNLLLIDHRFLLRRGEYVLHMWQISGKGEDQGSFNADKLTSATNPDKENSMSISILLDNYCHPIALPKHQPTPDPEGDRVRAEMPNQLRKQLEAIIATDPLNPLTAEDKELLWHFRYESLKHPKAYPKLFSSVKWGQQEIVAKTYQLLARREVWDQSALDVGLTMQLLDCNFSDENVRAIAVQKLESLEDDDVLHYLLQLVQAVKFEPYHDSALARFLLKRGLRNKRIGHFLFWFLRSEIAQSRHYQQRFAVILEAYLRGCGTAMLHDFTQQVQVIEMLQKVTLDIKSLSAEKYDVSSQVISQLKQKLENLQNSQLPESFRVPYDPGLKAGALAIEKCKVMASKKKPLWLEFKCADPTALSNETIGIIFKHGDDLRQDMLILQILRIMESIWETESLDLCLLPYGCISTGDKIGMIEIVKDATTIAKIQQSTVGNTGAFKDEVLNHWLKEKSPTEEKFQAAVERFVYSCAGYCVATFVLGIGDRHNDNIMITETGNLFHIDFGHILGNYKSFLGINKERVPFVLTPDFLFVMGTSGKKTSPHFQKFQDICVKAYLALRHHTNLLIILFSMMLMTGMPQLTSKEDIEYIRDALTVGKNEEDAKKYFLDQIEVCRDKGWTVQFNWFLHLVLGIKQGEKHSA
Sequence of PI3K α (P42336 whole entry): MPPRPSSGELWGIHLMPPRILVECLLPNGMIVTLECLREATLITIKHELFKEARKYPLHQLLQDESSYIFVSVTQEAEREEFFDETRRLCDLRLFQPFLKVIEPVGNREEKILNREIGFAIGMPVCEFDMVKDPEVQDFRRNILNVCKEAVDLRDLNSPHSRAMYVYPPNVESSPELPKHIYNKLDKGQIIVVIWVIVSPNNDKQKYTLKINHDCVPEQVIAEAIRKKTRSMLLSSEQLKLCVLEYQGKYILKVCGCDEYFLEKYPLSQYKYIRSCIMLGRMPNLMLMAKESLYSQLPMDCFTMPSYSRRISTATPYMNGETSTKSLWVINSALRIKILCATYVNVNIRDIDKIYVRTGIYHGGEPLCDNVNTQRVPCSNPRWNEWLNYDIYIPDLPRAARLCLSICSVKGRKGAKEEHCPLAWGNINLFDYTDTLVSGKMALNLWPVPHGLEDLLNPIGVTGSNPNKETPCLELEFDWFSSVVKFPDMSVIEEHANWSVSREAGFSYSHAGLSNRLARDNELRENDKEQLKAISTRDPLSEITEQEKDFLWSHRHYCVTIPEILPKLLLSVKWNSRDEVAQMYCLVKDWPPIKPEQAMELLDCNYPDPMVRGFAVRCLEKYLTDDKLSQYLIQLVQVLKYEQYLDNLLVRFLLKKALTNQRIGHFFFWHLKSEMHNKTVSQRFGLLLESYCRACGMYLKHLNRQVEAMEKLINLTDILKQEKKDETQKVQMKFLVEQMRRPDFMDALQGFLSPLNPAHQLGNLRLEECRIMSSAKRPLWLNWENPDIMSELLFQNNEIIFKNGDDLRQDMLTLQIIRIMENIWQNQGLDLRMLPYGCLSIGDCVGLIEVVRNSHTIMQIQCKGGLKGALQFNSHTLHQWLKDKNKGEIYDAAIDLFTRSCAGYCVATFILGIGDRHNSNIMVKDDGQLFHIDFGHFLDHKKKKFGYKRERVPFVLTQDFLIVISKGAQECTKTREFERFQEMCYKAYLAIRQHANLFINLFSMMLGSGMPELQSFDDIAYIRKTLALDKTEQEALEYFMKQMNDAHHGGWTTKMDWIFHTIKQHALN
Sequence of PI3K α (P27986 whole entry partner): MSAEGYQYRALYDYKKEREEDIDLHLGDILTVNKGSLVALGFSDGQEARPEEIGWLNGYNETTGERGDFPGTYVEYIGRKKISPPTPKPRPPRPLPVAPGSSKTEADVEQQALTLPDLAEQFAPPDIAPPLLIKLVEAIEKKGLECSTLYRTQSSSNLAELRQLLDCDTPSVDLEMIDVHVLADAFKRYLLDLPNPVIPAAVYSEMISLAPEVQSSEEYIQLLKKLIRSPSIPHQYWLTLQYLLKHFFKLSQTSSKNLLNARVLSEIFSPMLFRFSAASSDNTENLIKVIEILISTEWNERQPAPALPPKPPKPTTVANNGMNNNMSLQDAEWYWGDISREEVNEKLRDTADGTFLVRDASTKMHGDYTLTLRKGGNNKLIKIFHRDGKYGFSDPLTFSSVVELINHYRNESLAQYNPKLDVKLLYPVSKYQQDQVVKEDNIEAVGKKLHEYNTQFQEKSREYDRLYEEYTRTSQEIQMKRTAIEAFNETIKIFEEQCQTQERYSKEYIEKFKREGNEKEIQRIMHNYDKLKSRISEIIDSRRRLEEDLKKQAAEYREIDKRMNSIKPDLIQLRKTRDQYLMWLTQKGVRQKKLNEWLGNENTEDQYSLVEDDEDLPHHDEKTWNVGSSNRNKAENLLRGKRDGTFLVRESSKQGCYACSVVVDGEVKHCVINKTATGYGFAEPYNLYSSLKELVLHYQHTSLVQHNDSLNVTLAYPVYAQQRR
Sequence of PI3K β (P42338 whole entry, canonical isoform): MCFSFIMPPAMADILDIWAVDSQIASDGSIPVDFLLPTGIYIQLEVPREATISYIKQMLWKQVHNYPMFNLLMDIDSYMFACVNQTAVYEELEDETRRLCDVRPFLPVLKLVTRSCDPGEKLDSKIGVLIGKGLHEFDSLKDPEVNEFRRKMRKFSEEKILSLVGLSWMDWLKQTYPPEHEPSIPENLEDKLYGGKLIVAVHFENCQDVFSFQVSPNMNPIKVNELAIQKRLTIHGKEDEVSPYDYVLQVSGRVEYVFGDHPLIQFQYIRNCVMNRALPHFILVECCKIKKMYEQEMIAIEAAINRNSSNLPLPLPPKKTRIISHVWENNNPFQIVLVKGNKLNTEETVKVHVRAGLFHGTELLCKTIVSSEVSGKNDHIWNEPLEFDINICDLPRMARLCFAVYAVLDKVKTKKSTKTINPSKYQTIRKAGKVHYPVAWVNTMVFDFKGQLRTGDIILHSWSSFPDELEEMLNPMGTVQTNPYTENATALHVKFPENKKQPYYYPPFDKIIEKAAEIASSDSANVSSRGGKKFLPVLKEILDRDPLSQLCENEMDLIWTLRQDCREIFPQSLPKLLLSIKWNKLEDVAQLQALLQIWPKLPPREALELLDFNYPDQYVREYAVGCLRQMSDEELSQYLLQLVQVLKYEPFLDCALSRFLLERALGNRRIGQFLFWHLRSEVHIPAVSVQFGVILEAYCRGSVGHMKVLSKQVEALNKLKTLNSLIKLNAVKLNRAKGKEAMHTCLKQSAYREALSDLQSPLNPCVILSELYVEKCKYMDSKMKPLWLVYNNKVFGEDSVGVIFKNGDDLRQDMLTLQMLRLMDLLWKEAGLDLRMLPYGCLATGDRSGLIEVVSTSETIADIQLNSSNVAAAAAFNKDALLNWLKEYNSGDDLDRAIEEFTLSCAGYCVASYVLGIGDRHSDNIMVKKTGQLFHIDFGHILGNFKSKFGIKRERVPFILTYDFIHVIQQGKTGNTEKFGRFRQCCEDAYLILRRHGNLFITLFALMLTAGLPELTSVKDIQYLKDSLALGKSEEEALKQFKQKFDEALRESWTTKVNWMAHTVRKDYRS
Sequence of PI3K β (P27986 whole entry partner, canonical isoform): as the sequence (P27986 whole entry partner) above
Sequence of PI3K delta (O00329 whole entry): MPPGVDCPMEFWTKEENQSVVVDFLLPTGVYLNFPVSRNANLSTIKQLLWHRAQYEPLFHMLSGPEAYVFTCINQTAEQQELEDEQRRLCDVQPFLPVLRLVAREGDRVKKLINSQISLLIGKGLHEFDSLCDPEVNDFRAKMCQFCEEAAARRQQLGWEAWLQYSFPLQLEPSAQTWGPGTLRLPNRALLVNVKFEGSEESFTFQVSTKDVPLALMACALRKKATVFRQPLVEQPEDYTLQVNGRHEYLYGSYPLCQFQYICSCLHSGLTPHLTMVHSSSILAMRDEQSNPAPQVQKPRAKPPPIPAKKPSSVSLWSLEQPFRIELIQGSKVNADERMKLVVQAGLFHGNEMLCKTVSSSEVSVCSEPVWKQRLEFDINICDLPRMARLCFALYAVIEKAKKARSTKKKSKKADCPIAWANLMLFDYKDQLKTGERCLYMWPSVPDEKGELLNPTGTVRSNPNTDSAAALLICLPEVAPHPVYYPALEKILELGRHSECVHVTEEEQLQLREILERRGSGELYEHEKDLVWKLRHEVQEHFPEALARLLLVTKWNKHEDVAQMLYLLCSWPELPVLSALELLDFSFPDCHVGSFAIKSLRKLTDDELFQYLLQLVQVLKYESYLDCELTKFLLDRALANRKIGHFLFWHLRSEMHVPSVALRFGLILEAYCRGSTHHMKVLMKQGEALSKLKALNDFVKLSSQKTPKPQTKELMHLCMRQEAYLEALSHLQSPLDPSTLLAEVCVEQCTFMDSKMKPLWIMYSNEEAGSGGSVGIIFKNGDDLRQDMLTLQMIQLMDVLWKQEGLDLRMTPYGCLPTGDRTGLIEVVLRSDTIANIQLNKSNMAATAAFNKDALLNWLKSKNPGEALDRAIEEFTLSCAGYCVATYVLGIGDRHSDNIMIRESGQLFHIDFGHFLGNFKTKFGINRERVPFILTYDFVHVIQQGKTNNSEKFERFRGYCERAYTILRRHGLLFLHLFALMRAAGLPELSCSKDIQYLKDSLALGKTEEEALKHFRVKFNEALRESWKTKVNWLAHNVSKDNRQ
Sequence of PI3K delta (P27986 whole entry partner): as the sequence (P27986 whole entry partner) above

CC(C)Oc1ccc(-c2nn([C@@H](C)c3oc4ccccc4c(=O)c3-c3cccc(F)c3)c3ncnc(N)c23)cc1F [Compound A1, (S)-2-(1-(4-amino-3-(3-fluoro-4-isopropoxyphenyl)-1H-pyrazolo[3,4-d]pyrimidin-1-yl)ethyl)-3-(3-fluorophenyl)-4H-chromen-4-one]
Metabolic stability in liver microsomes, Rat (percent parent compound remaining) [1]: 35.8% | inhibition at 1 µM (PI3K β): 47.9% | Fold-Selectivity PI3Kβ (PI3K β; Enzyme, versus PI3Kδ): >54 fold | Metabolic stability in liver microsomes, Mouse (percent parent compound remaining) [2]: 46.1% | inhibition at 1 µM (PI3K α): 8.91% | Fold-Selectivity PI3Kα (PI3K α; Enzyme, versus PI3Kδ): >1000 fold | Fold-Selectivity PI3Kγ (PI3Kγ): >8 fold | Fold-Selectivity PI3Kα (PI3Kα): >1000 fold | Fold-Selectivity PI3Kβ (PI3Kβ): >30 fold | AKT phosphorylation (dose dependence) [3]: dose dependent reduction | inhibition at 0.3 µM ([3]; Homo sapiens, Bone marrow cell, 0.3 μM, 48 hrs): > 50% | inhibition at 1 µM (PI3K γ): 80.6% | Fold-Selectivity PI3Kγ (PI3K γ; Enzyme, versus PI3Kδ): >9 fold | EC50 (PI3Kδ): < 50 nM | Metabolic stability in liver microsomes, Human (percent parent compound remaining) ([4]; 1 μM test item, 60 minutes, NADPH): 54.5% | fold greater metabolic stability in human liver microsomes than its enantiomer ([4]; A1 vs A2, B1 vs B2): ~5 fold | IC50 (PI3K delta): 13.8 nM | EC50 [5]: ≤ 100 nM
